In US20050222264A1, “Anti-rhinovirus active agents” (UNIHART CORPORATION, priority 2002, published 2005):

Assays:
Type in all cases: cell-based, Human Rhinoviruses
Conditions in all cases: count after 3 days
Rhinovirus M Strain = assay: Plaques assay on cell mono-layers, Rhinovirus M strain, MKC-5
Description: (§1) The activity of the above compounds was evaluated in a plaque inhibition assay carried out on mono-layers of kidney cells from Rhesus monkey and from WI38 and Ohio-HeLa human cells, suitable for the propagation of Rhinoviruses M and H strains respectively. In this assay, the addition to the culture medium of an agent able to impede the viral penetration in the cells reduces the formation of microplaques compared with an untreated control culture. Therefore, the effectiveness of the test compound can be determined by counting the microplaques in treated and non-treated cultures after exposure to the virus.
(§2) • 1. prepare confluent kidney cell mono-layers from Rhesus monkeys and from human cell lines (WI 38, MRC-5 and Ohio-Hela cells) in 6.75 cm Ø Petri dishes; • 2. aspirate the growth medium; • 3. wash each dish with 10 ml of culture medium (serum-free growth medium), Earle's saline solution—lactoalbumine hydrolysate and incubate at 33° C. for 60′; • 4. aspirate the liquid; • 5. prepare serial 1:10 viral dilutions (Rhinovirus-strain M and Rhinovirus-strain H) in Earle's saline solution—lactoalbumine hydrolysate and inoculate each dish with 0.2 ml volumes of viral dilution. Each viral dilution is inoculated in duplicate. • 6. Prepare analogous serial viral dilutions (as in 5) in Earle's saline solution—lactoalbumine hydrolysate, added with the anti-viral test compound at the desired concentration. • 7. Prepare Earle's saline solution—lactoalbumine hydrolysate added with the test anti-viral compound at the desired concentration as the control (one control for each test compound). • 8. incubate the infected mono-layers at 33° C. for 60′, gently rocking the dishes at 15′ intervals in order to evenly distribute the inoculum; • 9. place the dishes on a flat surface; • 10. thoroughly add 10 ml of nutritive agar in Earle's saline solution—calf serum, equilibrated at 44° C., to each dish and allow to harden. […]

Rhinovirus H Strain [1] = assay: Plaques assay on cell mono-layers, Rhinovirus H strain, WI38
Description: as §1
• 1. prepare confluent kidney cell mono-layers from Rhesus monkeys and from human cell lines (WI 38, MRC-5 and Ohio-Hela cells) in 6.75 cm Ø Petri dishes; • 2. aspirate the growth medium; • 3. wash each dish with 10 ml of culture medium (serum-free growth medium), Earle's saline solution—lactoalbumine hydrolysate and incubate at 33° C. for 60′; • 4. aspirate the liquid; • 5. prepare serial 1:10 viral dilutions (Rhinovirus-strain M and Rhinovirus-strain H) in Earle's saline solution—lactoalbumine hydrolysate and inoculate each dish with 0.2 ml volumes of viral dilution. Each viral dilution is inoculated in duplicate. • 6. […]

Rhinovirus H Strain [2] = assay: Plaques assay on cell mono-layers, Rhinovirus H strain, Ohio-HeLa
Description: as §1, §2

[3] = dilution of inoculated virus 10^−3, same molar concentration of a 12.5 γ/ml xenaldial solution
[4] = dilution of inoculated virus 10^−4, same molar concentration of a 12.5 γ/ml xenaldial solution
[5] = dilution of inoculated virus 10^−5, same molar concentration of a 12.5 γ/ml xenaldial solution

Structure (SMILES): CCOC(Nc1ccc(C(=O)O)cc1)C(=O)c1ccc(-c2ccccc2)cc1 (stereo not drawn) [Xenalamine, p-(α-ethoxy-p-phenyl-phenacylamino)-benzoic acid, reference compound]
- n° of plaques in 2 dishes (Rhinovirus M Strain; [3]): 4
- n° of plaques in 2 dishes (Rhinovirus M Strain; [4]): 2
- n° of plaques in 2 dishes (Rhinovirus M Strain; [5]): 1
- n° of plaques in 2 dishes (Rhinovirus H Strain [1]; [3]): 3
- n° of plaques in 2 dishes (Rhinovirus H Strain [1]; [4]): 1
- n° of plaques in 2 dishes (Rhinovirus H Strain [2]; [3]): 2
- n° of plaques in 2 dishes (Rhinovirus H Strain [2]; [4]): 1
- n° of plaques in 2 dishes (Rhinovirus H Strain [2]; [5]): 1
